The values that follow come from patent US8334239B2, “High affinity VEGF-receptor antagonists” (The Board of Regents of the University of Texas System, priority 2007, dated 2012).

The target of test [1] is T1, VEGFR2 (Homo sapiens, UniProt P35968). Nature of the test: ELISA-like binding assay, fluoresceinated peptoids on immobilized VEGFR2 extracellular domain. More on the design: VEGFR2 extracellular domain (amino acids 1-764 fused to 6× histidine-tagged Fc of human IgG, via the peptide IEGRMD; R&D Systems); linker peptide IEGRMD (internal); Fc of human IgG (C); 6xHis (C); purchased R&D Systems. Conditions: for Kd: ELISA-like assay. The protocol: ELISA based binding assay. White, clear bottom 96-well plates (Corning Inc.) were coated with of 1 μg/ml recombinant human VEGFR2 protein (R&D Systems) using the sensitizing buffer (0.621 g NaHCO3 & 0.275 g Na2CO3 dissolved on 100 ml of ddH2O, pH=9.5) overnight at 4° C. Washed with 3×200 μl of wash buffer 1×PBS with 0.05% Tween-20 and blocked with Startingblock blocking buffer (Pierce). Added 50 μl of serial dilutions of FITC labeled peptoids dissolved in Startingblock blocking buffer to each well & allowed to react for 1 h at room temperature. Washed with 5×200 μl of wash buffer 1×PBS with 0.05% Tween-20 and remaining fluorescence was measured at 520 nm using the plate reader.
The isolated peptoids are VEGFR2 ligands. Two of the ‘hits’ from this screen, GU40C and GU40E (see FIG. 2) were resynthesized, both as free compounds and with C-terminal Cys (for C-terminal fluorescein tagging via maleimide chemistry), cleaved from the beads and purified to apparent homogeneity by reverse phase HPLC. […] The association of these peptoids with VEGFR2 was evaluated using an ELISA-like assay. A commercially available fusion protein containing the VEGFR2 extracellular domain (amino acids 1-764 fused to 6× histidine-tagged Fc of human IgG, via the peptide IEGRMD; R&D Systems) was plated into 96-well plates and then mixed with various concentrations of […] Fluorescein (FITC)-labeled peptoid. After washing away unbound peptoid, the remaining fluorescence emission signal was measured at 520 nm. In this assay purified VEGFR2 protein was used instead of the whole PAE/KDR cells that over express VEGFR2, in order to confirm these compounds were binding only to the receptor.
Target sequence in this assay (P35968 20-764): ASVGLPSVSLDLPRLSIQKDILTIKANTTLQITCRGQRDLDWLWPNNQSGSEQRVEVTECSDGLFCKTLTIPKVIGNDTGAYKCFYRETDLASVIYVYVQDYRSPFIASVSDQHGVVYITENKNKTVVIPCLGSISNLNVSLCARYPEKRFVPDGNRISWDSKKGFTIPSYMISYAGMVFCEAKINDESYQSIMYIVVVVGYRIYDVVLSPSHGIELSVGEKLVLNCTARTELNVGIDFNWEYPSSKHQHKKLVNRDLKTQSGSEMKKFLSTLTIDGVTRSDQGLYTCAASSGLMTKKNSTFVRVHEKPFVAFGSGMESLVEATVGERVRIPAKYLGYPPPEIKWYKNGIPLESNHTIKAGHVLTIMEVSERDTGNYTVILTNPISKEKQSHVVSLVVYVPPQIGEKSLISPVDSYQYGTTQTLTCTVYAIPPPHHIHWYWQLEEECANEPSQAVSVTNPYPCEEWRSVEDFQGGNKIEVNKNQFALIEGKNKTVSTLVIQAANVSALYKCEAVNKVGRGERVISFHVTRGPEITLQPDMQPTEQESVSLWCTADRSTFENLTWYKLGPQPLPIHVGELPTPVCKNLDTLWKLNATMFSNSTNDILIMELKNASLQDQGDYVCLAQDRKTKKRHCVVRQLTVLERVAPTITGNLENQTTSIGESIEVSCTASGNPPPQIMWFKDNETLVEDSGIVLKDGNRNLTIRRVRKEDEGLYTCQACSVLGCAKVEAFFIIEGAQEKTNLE

Another test concerns GST. Nature of the test: ELISA-like binding assay on immobilized GST. The conditions noted are these: same ELISA-like assay. Background: An ELISA detects its analyte on a solid surface through an enzyme-linked reagent.
For a further test, the target named is T2, CD105 (Homo sapiens, UniProt P17813).
T2 sequence (P17813 26-658): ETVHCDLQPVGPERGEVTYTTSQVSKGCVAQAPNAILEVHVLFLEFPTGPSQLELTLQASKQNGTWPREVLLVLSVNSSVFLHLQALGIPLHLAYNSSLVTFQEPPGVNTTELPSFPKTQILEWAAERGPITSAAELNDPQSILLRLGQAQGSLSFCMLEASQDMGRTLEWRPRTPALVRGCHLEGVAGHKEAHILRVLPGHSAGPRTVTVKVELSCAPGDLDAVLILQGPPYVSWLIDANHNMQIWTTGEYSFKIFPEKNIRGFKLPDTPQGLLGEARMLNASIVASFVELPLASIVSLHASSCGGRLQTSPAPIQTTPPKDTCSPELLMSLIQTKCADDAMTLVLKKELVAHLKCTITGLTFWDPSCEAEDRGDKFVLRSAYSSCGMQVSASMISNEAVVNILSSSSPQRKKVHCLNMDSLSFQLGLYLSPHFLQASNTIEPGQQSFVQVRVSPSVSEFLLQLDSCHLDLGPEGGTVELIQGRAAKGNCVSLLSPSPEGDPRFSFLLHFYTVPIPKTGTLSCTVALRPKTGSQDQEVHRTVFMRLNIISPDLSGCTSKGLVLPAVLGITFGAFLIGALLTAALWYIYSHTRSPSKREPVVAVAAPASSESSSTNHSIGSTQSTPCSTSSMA
Nature of the test: ELISA-like binding assay on immobilized CD105. The conditions noted are these: same ELISA-like assay.

The target of test [2] is T1, VEGFR2. The test can be described thus: VEGF-induced VEGFR2 autophosphorylation in PAE/KDR cells, Western blot. Details: allow the library to be screened against the full-length receptor in as natural an environment as possible; host or cells: PAE/KDR (porcine aortic endothelial cells expressing human KDR). The class given is cell-based. Here is the method:
Western blots. Experiments were conducted using PAE/KDR cells that were grown on 6-well plates. […] The blots were probed with Phospho-VEGF receptor 2 (Tyr1175) (19A10) rabbit monoclonal or Total VEGFR2 primary antibodies (Cell signaling) and HRP-conjugated secondary antibody (BioRad).
Functional characterization of the VEGFR2-binding peptoids. GU40C and GU40E were then tested for their ability to modulate VEGFR function. Of course, since the screen simply demanded binding of the peptoid to the receptor, it was not a given that this would be the case. […] Western blot analysis using phospho-VEGFR2-specific antibodies was then employed to monitor receptor activation.
To do so, the inventors examined the effect of the peptoid on VEGF-induced VEGFR2 autophosphorylation by Western blotting, as described earlier.
Target sequence in this assay (P35968 20-1356): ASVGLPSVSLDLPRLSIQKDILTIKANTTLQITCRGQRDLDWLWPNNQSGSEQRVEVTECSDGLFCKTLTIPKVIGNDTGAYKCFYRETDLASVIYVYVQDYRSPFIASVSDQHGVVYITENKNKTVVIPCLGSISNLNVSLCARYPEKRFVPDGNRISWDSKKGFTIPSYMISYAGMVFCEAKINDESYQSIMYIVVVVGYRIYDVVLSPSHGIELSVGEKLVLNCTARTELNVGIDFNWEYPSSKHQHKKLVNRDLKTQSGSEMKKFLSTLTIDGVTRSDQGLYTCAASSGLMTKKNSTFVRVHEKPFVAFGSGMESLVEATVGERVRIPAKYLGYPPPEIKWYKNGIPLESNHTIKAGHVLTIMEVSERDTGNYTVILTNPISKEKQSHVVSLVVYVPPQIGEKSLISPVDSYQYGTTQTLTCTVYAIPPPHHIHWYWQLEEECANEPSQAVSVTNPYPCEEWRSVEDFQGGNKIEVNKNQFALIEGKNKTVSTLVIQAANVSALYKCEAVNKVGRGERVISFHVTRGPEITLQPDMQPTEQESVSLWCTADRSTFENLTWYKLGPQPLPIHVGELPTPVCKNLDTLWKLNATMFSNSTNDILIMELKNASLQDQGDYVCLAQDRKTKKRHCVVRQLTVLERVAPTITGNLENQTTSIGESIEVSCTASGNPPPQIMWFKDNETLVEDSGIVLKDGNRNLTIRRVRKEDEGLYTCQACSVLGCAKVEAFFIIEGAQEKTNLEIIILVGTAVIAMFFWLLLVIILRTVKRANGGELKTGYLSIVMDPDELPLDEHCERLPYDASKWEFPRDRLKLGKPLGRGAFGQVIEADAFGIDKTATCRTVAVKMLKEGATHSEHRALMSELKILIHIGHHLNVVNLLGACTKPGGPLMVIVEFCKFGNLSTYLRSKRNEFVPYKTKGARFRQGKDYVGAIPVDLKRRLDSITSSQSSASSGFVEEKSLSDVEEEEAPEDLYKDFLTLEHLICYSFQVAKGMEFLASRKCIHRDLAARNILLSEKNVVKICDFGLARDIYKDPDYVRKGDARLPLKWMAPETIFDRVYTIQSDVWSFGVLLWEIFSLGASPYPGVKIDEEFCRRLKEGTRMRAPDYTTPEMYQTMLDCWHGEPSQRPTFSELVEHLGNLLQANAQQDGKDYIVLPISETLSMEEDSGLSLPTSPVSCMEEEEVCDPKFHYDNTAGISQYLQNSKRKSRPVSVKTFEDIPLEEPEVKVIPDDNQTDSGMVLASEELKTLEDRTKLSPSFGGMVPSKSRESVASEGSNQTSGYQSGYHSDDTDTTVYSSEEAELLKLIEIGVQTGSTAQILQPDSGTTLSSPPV
For orientation: Immunoblotting shows a protein as a band on a membrane.

A further test concerns HUVEC. The test can be described thus: HUVEC tube formation assay. The class given is cell-based, human. Conditions: 10 μM, 1.3 nM VEGF. Here is the method:
HUVEC tube formation assay. Endothelial cell medium gel (ECM gel) was thawed overnight at 4° C. refrigerator and added 50 μl to each well of pre-chilled white, clear bottom 96-well plate. Incubated for 30 min to facilitate the gel formation. […] 150 μl of these treated cell suspension (20,000 cells) was added per well and incubated at 37° C. and visualized tube formation under the light microscope after 16 hours (10× magnification).

Another test concerns the target VEGFR2 ECD (Homo sapiens, UniProt P35968). The test can be described thus: Competitive binding assay against fluoresceinated GU40C. The conditions noted are these: increasing concentrations of unlabelled competitor. From the text:
FIGS. 17A-B. GU40C truncation study results. (FIG. 17A) Downward arrows show GU40C truncation positions (FIG. 17B) Competitive binding assay results; increasing concentrations of unlabelled GU40C and truncated derivatives were competed with a constant amount of fluoraceinated GU40C. Symbols represent; GU40C (□), 8-mer (▴), 7-mer (▾), 6-mer (⋄), 5-mer (∘), 4-mer (▪), control (x).
To identify the main chain amides important for binding, the inventors synthesized five different truncated versions of GU40C, each containing all four of the N-terminal residues (FIG. 17A). Increasing concentrations of these truncated versions were competed with a constant amount of fluoresceinated GU40C for binding to the VEGR2 ECD. […] Elimination of the first C-terminal residue weakened binding about ten-fold (FIG. 17B). Further elimination of the next three C-terminal residues further diminished binding only slightly. However, deletion of the next residue essentially abolished binding of the peptoid to the VEGFR2 ECD.

Structures are written as SMILES. Entries after “also recorded” stand apart in the source; their conditions may differ. Read-outs that look alike come from different tables or passages of the source. Starred links: 1 amine or outer side, 2 acyl side, 3 side chain; linkers in the order of their positions; H or OH if unused. Non-standard residues stand in square brackets, D forms with d. Residues, ends and D or L forms follow the SMILES beside them. Gly(N-piperonyl) = O=C(O)CNCc1ccc2c(c1)OCO2; X1 = CC(c1ccccc1)N(CC(=O)[*:2])[*:1]; Nleu = CC(C)CNCC(=O)O; Nlys = NCCCCNCC(=O)O

VEGFR2 ECD, sequence (P35968 20-764 limits assumed): as the sequence (P35968 20-764) above

As usually defined, the Kd is a measure of binding affinity in units of concentration. With `CC(C)CN(CC(=O)N(CCCCN)CC(=O)N(CC(=O)N(CC(=O)N(CCCCN)CC(=O)N(CC(=O)N(CCCCN)CC(=O)N(CCCCN)CC(=O)O)CC(C)C)Cc1ccc2c(c1)OCO2)C(C)c1ccccc1)C(=O)CNCCCCN` (centres unmarked) [GU40C, Nlys-Nleu-Nlys-Nmba-Npip-Nlys-Nleu-Nlys-Nlys] (H-[Nlys][Nleu][Nlys][X1][Gly(N-piperonyl)][Nlys][Nleu][Nlys][Nlys]-OH), the Kd is 2.85 ± 0.4 µM on VEGFR2 [1] (immobilized VEGFR2 extracellular domain, read-out: KD) and ~2 µM at VEGFR2 [1] (read-out: dissociation constant (KD)). Moreover, at VEGFR2 [1] (ELISA-like binding assay), the “binding to VEGFR2 ECD (in words)” value was “able to display binding”. In addition, the “binding after pre-incubation of immobilized receptor with unlabeled VEGF” value on VEGFR2 [1] (fluoresceinated peptoid) was “almost no binding”. Besides, the “binding to GST” value in the test on GST was “did not bind detectably”. The “binding to CD105” value on CD105 is reported as “did not bind detectably”. Also, the “agonist activity on VEGFR2 phosphorylation” value on VEGFR2 [2] (PAE/KDR cells, Western blot) is on record as “Neither peptoid at any concentration tested evinced agonist activity; also recorded: None of the peptoids exhibited agonist activity”. At VEGFR2 [2] (monomeric peptoids, 500 μM, 1.3 nM VEGF), the “effect on VEGF-induced VEGFR2 phosphorylation (in words)” value was “weak antagonists”. The “inhibition of VEGFR2 phosphorylation” value against VEGFR2 [2] (peptoid 500 μM, 1.3 nM VEGF, PAE/KDR cells) is reported as “approximately 75%”. Moreover, in the test with HUVEC, the “effect on VEGF-induced HUVEC tube formation” value was “slight effect; also recorded: small effect”. Besides, at VEGFR2 ECD, the “competition with fluoresceinated GU40C for binding to VEGFR2 ECD” value is “competed efficiently”.
